# Assay results as given in patent publication US20130101634A1, “COMPOSITIONS AND METHODS FOR REDUCING MICROBIAL OVERGROWTH IN THE SMALL INTESTINES” (DEERLAND ENZYMES, INC., priority 2011, published 2013).
# Assays:
# [1] = tested on: E. coli; test: Growth curve (O.D. 600 over time) in nutrient broth; assay type: cell-based; settings: 1 mg/ml in nutrient broth, alone or with 1 mg/ml EDTA or citrate, 37° C., FIGS. 1, 3, 5
# Method: (§1) Growth Curves Since bacteria grow exponentially, it is useful to plot the logarithm of the relative population size [y=ln(NIN0)] against time. Frozen permanents of each strain were streaked for single colonies using nutrient agar plates warmed prior to use. Single bacterial cells were restreaked on a nutrient agar plate at 37° C. for 24 h to 72 h depending on strain. Cells of several well-grown colonies on the plate were added to 50 ml of nutrient broth with shaking at 37° C. until the culture reached the desired optical density. Ingredients of interest were slowly added while stirring at 37° C. […] Samples were taken at various time points and the optical density of the culture was obtained at 600 nm. All experiments were replicated twice.
# [2] = tested on: Bacteroides fragilis; test: as above; assay type: cell-based; settings: 1 mg/ml in nutrient broth, alone or with 1 mg/ml EDTA, 37° C., FIGS. 2, 4, 6
# Method: as §1
Substance,cell growth (O.D. 600 as a function of time) [1],cell growth (O.D. 600 as a function of time) [2]
nisin,cell growth is not totally eliminated and cell culture will recover,cell growth is not totally eliminated and cell culture will recover
lysozyme,cell growth is not totally eliminated and cell culture will recover,cell growth is not totally eliminated and cell culture will recover
